Measured values from patent US9012397B2 (priority 2011, dated 2015).
Where two headings read alike, the source gives them in different places.

Columns and labels:
Assay type in all cases: in vivo, human
Varicella = settings: person, 50 μg/gr cream
Method: (§1) The method of the invention has been carried out with respect to a number of skin disorders. The patients were treated with one of two peptides, each at a concentration of 50 μg/gr cream (unless otherwise indicated):
(§2) The cream was manufactured by Amiga LTD, Israel, and contains the following components:
3. A person was diagnosed with severe Varicella, which appeared all over the body. The patient had severe itching and skin peeling. No commercial remedy helped. Initially, ZEP3 was topically applied to the hand, with improvement and relief within 24 hours. […] After 10 days, there was no sign of the disease nor were there any future complications.

vaginal herpes = settings: female over 40, lesions on outer genital area; 50 μg/gr cream daily
Method: as §1, §2
4. A person over 40 suffered from advance vaginal herpes, with numerous lesions on the outer genital area and pronounced itching and swelling.

flea bites = tested on: flea bites
Method: as §1, §2
1. person two was bitten by fleas on various occasions, resulting in an itching sensation. […] The ointment was reapplied after 6 hours.
2. person one who is very sensitive to flea bites was bitten by fleas, resulting in an itching sensation. […] The ointment should be reapplied after 12 hours.

[1] = entire body twice a day for two weeks

**Q.** pGLU-ASN-TRP-LYS-C8 [ZEP3] was tested. Which clinical outcome (Varicella; [1]) did it give?
**A.** The clinical outcome was “shortening the time of recovery (healing)”.

**Q.** What about the “time to decrease in the skin rash and the degree of the sore and swelling” value (Varicella; [1]) of the same substance?
**A.** Its value is 10 to 20 min.

**Q.** And the “time until no sign of the disease” value (Varicella; [1])?
**A.** The value was 10 days.

**Q.** And the “time to improvement and relief” value (Varicella; initial application to the hand)?
**A.** Its value is at most 24 h.

**Q.** What about the clinical outcome (vaginal herpes) of the same substance?
**A.** The clinical outcome was “the redness and swelling decreased, and the lesions healed”.

**Q.** And the clinical outcome (flea bites; person one very sensitive to flea bites, 50 μg/gr cream)?
**A.** The clinical outcome was “almost immediate cessation of the itching sensation”.

**Q.** What about the clinical outcome (flea bites; person two, 50 μg/gr cream several times to bite location) of the same substance?
**A.** The clinical outcome was “immediate cessation of the itching sensation”.
